Measured values from US20260191825A1, “CONTRACEPTIVE COMPOUNDS AND DOSING FOR THE SAME” (YourChoice Therapeutics, Inc., priority 2024, published 2026).
Where “and” joins values, the source holds several entries; their conditions need not be identical. Equal entries are not always repeated. Entries after “also recorded” stand apart in the source; their conditions may differ.

How the values were obtained:
[1] = test system: male NHPs (cynomolgus monkeys); assay: NHP exploratory 14-day non-GLP repeat-dose study; assay type: in vivo, cynomolgus monkey
Description: (§1) An exploratory 14-day non-GLP study was conducted in male NHPs (cynomolgus monkeys) for assessment of efficacy and toxicity parameters prior to the conduct of the 28-day GLP toxicity studies in rats and dogs.

[2] = NHP exploratory 14-day non-GLP repeat-dose study; assay type: in vivo, cynomolgus monkey; conditions: male, cynomolgus monkey, in vivo; for NOAEL at 14 days: NHP
Description: as §1

[3] = test system: mice; assay: Repeat dose study in mice (sperm counts); assay type: in vivo, mouse
[4] = biological target: CYP1A2 (Homo sapiens, UniProt P05177); assay: In vitro CYP inhibition (direct and time-dependent), CYP1A2; assay type: in vitro ADME
Text: (§2) However, the likelihood of drug interactions is low since healthy participants who meet eligibility criteria will be enrolled in this Phase 1b/2a clinical trial. An allowance for select concomitant medications may be considered for select participants at the discretion of the investigator and/or sponsor if drug profiles are not anticipated to interact with Compound A. Such medications may include, but will not be limited to paracetamol or ibuprofen as assessed by both the PI and the Sponsor. […] Additional precautions to avoid grapefruit, pomegranates, star fruit, or Seville oranges for 7 days prior to admission, and juices and products containing these fruits for the duration of the study will be taken.

[5] = In vitro stability in microsomes (rabbit); assay type: in vitro ADME; conditions: rabbits
Description: Respective half-lives (T1/2) were 9.5 hours (human), 23.1 hours (monkeys), >23.1 hours (mice), >23.1 hours (rats), 19.6 hours (rabbits), and >23.1 hours (dogs).

[6] = Rat GLP single dose study, PK at the NOAEL; conditions: male, in vivo, 1000 mg/kg, single dose 1,000 mg/kg (NOAEL)
[7] = test system: mice; assay: Mating trials with mice; assay type: in vivo, mouse; conditions: 10 mg/kg/day for 4 weeks
[8] = test system: healthy vasectomized men; assay: Phase 1a single ascending oral dose study, safety and tolerability; assay type: in vivo, human
Description: The doses tested under fasting conditions were 10, 30, 90 and 180 mg. […] Cohort 1 first received 10 mg, and after a 5-week washout period received 30 mg. Cohort 2 received 90 mg followed by 180 mg after a 5-week washout period.

[9] = test system: male Beagle dogs; assay: Dog 28-day repeat-dose GLP toxicity study; assay type: in vivo
[10] = Dog 28-day repeat-dose GLP toxicity study; assay type: in vivo; conditions: male, Beagle, in vivo; for NOAEL at 28 days: dog
[11] = test system: male rats; assay: Rat single dose GLP study (toxicity, sperm parameters); assay type: in vivo
Text: (§3) No efficacy was observed after single dose studies in the rat.

[12] = as above; assay type: in vivo; conditions: male, in vivo; rat, single dose; highest dose tested
Text: as §3

[13] = Dog GLP 28-day repeat-dose study, PK at the NOAEL; conditions: male, Beagle, in vivo, 5 mg/kg, 5 mg/kg (NOAEL); for AUC(0-t): AUC0-24, dog
[14] = test system: respiratory system; assay: Rat respiratory safety pharmacology study; assay type: in vivo; conditions: male Sprague Dawley rats, single oral doses of 3, 10 or 30 mg/kg
[15] = NHP non-GLP 14-day repeat-dose study, PK at the NOAEL; conditions: male, cynomolgus monkey, in vivo, 10 mg/kg, 10 mg/kg (NOAEL); for AUC(0-t): read-out: AUC0-24
[16] = test system: CYP3A4/5; assay: In vitro CYP inhibition (direct and time-dependent), CYP3A4/5; assay type: in vitro ADME; conditions: human
Text: as §2

[17] = test system: bacterial reverse mutation (Ames); assay: In vitro bacterial reverse mutation (Ames) test; assay type: cell-based; conditions: in vitro bacterial assay, highest doses tested
[18] = test system: sperm counts; assay: Phase 1b MAD study (Part 1), 28-day dosing, sperm counts; assay type: in vivo, human; conditions: men dosed for 4 weeks (28 oral doses) at doses of up to 90 mg
Text: The main underlying reason provided by experts in the male contraceptive field is the dosing duration. Dosing for 28 days in men only covers approximately one third of the entire cycle from sperm production to sperm release, which takes 85 days in men (71 days for one spermatogenic cycle and 14 days for epididymal transit). […] Therefore, the dosing period will be extended from 28 days to 90 days with the anticipation that this will show the intended effect (reduction in sperm concentration).
Cohort 4 (receiving 180 mg) is currently being studied.

[19] = test system: central nervous system (CNS); assay: Rat FOB / CNS safety pharmacology study; assay type: in vivo; conditions: male Sprague Dawley rats, single oral doses of 3, 10 or 30 mg/kg

Sequence of CYP1A2 (P05177 whole entry): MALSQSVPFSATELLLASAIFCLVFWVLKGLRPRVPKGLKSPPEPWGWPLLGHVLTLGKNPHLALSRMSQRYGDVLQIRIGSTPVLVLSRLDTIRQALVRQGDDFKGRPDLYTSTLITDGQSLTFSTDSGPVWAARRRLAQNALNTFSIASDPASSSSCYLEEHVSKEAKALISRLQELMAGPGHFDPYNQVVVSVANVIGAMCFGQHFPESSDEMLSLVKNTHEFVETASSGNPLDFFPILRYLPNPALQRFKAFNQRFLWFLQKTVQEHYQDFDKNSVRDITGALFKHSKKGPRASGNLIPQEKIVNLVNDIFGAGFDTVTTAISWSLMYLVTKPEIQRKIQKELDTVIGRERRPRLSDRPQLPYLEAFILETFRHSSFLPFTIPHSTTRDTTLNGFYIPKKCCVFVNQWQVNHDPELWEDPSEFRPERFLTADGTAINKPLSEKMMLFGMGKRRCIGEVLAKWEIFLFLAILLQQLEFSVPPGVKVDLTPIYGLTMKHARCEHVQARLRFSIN

Question: For Cc1ccc(C2=CC(C)(C)Oc3ccc(-c4ccc(-c5ccc(C(=O)O)cc5)[nH]4)cc32)cc1 [Compound A], which “NOAEL increase over the minimum efficacious dose in rats” value ([1]; NHP NOAEL 10 mg/kg/day) is on record?
Answer: 22 fold

Question: And the Signs of toxicity ([1]; cynomolgus monkey, in vivo)?
Answer: No signs of toxicity

Question: And the “HED (based on BSA)” value ([1]; of NHP 14-day repeat-dose NOAEL)?
Answer: 3.23 mg/kg and 3.2 mg/kg

Question: And the “HED for 60 kg BW” value ([1]; of NHP repeat-dose NOAEL)?
Answer: 192 mg

Question: What about the HED for 80 kg BW ([1]; of NHP repeat-dose NOAEL) of the same compound?
Answer: 256 mg

Question: And the Human equivalent dose of NOAEL at 14 days ([2]; NHP 14-day non-GLP, NOAEL 10 mg/kg/day, read-out: HED of NOAEL)?
Answer: 3.2 mg/kg/day

Question: And the NOAEL at 14 days ([2]; 14-day repeat dose non-GLP, 5-20 mg/kg/day)?
Answer: 10 mg/kg/day

Question: And the NOAEL at 14 days ([2]; 14-day repeat-dose)?
Answer: 10 mg/kg

Question: And the “Reversibility of antispermatogenic effect” value ([3]; mice)?
Answer: ≤ 1 spermatogenic cycle

Question: And the “Lowest dose with decreases in sperm counts” value ([3]; mouse, repeat dose for 4 weeks)?
Answer: 2.5 mg/kg/day

Question: What about the IC50 ([4]; CYP1A2) of the same compound?
Answer: 30.1 µM

Question: What about the “Time-dependent inhibition (TDI)” value ([4]; CYP1A2, 0.3 to 100 μM) of the same compound?
Answer: no TDI potential

Question: What about the half-life ([5]; rabbit, read-out: Half-life (T1/2) in microsomes (converted)) of the same compound?
Answer: 19.6 h

Question: What about the Compound remaining intact ([5]; 90 minutes) of the same compound?
Answer: 99%

Question: What about the AUC(0-t) ([6]; Day 1, mean, read-out: AUC0-24) of the same compound?
Answer: 560000 ng·h/mL

Question: And the Tmax ([6]; Day 1, median)?
Answer: 48 h

Question: What about the half-life ([6]; Day 1, median, calculated from only 2 animals) of the same compound?
Answer: 16.9 h

Question: And the Cmax ([6]; Day 1, n = 20, mean)?
Answer: 45100 ng/mL

Question: And the “Complete recovery of fertility after cessation of dosing” value [7]?
Answer: 6-10 weeks

Question: What about the “Infertility (based on the number of viable embryos)” value [7] of the same compound?
Answer: 99%

Question: What about the “Adverse event possibly related to study treatment” value ([8]; after the 30 mg dose) of the same compound?
Answer: decreased sex drive in 1 participant

Question: What about the “Adverse event possibly related to study treatment” value ([8]; after the 180 mg dose, Holter monitoring, 1 participant) of the same compound?
Answer: asymptomatic cardiac arrhythmia of low clinical concern

Question: What about the “Serious adverse events (SAEs)” value ([8]; single doses 10, 30, 90, 180 mg, fasting) of the same compound?
Answer: no serious adverse events

Question: And the “Adverse events classified as possibly related to study treatment (number)” value ([8]; single doses 10-180 mg)?
Answer: two

Question: What about the Safety and tolerability ([8]; single doses up to 180 mg, fasted state, healthy volunteers) of the same compound?
Answer: safe and well tolerated

Question: What about the “HED (based on BSA) of MABEL” value ([9]; dog) of the same compound?
Answer: 1.4 mg/kg

Question: And the “HED for 60 kg BW of MABEL” value ([9]; dog)?
Answer: 84 mg

Question: And the “HED for 80 kg BW of MABEL” value ([9]; dog)?
Answer: 112 mg

Question: And the “HED of not tolerated dose, fixed dose based on 80 kg body weight” value ([9]; dog)?
Answer: ≥ 444.8 mg

Question: What about the “Not tolerated repeat daily dose (death and morbidity)” value ([9]; dog) of the same compound?
Answer: ≥ 10 mg/kg/day

Question: What about the “Doses with intended testicular toxicity confirmed by histopathology” value ([9]; dog, 28-day dosing) of the same compound?
Answer: ≥ 2.5 mg/kg/day

Question: What about the MABEL ([9]; dog, 28-day repeat dose GLP) of the same compound?
Answer: 2.5 mg/kg/day

Question: And the Reversibility of spermatogenesis ([9]; dog, 62-day recovery period)?
Answer: reversible

Question: And the Recovery of spermatogenesis ([9]; dog, after 28-day dosing)?
Answer: 1 spermatogenic cycle

Question: And the “Cross-section of canine testicle after dosing (FIG. 1B)” value ([9]; dog, after dosing)?
Answer: no developing and mature sperm

Question: And the “Cross-section of canine testicle after recovery period of no dosing (FIG. 1C)” value ([9]; dog, after recovery period)?
Answer: return of developing sperm

Question: What about the “Cause of death or moribundity” value ([9]; dogs, 10 or 25 mg/kg/day) of the same compound?
Answer: renal toxicity

Question: What about the “NOAEL increase over the minimum efficacious dose in rats” value ([9]; male, Beagle, dog, in vivo, 28 days) of the same compound?
Answer: 22 fold

Question: What about the “HED for 60 kg BW” value ([9]; of dog repeat-dose NOAEL) of the same compound?
Answer: 168 mg

Question: And the “HED for 80 kg BW” value ([9]; of dog repeat-dose NOAEL)?
Answer: 224 mg

Question: And the Human equivalent dose of NOAEL at 28 days ([10]; dog 28-day GLP, NOAEL 5 mg/kg/day, read-out: HED of NOAEL)?
Answer: 2.8 mg/kg/day

Question: What about the NOAEL at 28 days ([10]; 28-day repeat dose GLP, 2.5-25 mg/kg/day) of the same compound?
Answer: 5 mg/kg/day

Question: And the NOAEL at 28 days ([10]; 28-day repeat-dose)?
Answer: 5 mg/kg

Question: And the “Tolerated single dose (highest dose tested)” value ([11]; male rats, GLP study)?
Answer: 1,000 mg/kg

Question: And the “Human dose 60 kg, safety factor 10” value ([11]; male, rat, in vivo, 15 days)?
Answer: 967.74 mg

Question: What about the HED ([11]; rat, single dose 1,000 mg/kg) of the same compound?
Answer: 161.3 mg/kg and 161.29 mg/kg

Question: And the “Impact on sperm parameters after single dose” value ([11]; rats, single doses as high as 1,000 mg/kg, Day 15 post dose)?
Answer: no impact on sperm parameters

Question: And the NOAEL at 15 days [12]?
Answer: 1000 mg/kg

Question: What about the AUC(0-t) ([13]; Day 1, mean) of the same compound?
Answer: 43800 ng·h/mL

Question: And the AUC(0-t) ([13]; Day 28, mean)?
Answer: 80800 ng·h/mL

Question: What about the Cmax ([13]; Day 1, n = 9, mean) of the same compound?
Answer: 3410 ng/mL

Question: And the Cmax ([13]; Day 28, mean)?
Answer: 4800 ng/mL

Question: And the half-life ([13]; T1/2, dog, Day 1, median)?
Answer: 13.9 h

Question: And the Tmax ([13]; Tmax, Day 28, median)?
Answer: 2 h

Question: What about the “Main outcomes: rat respiratory (adverse effects on respiratory system)” value [14] of the same compound?
Answer: no adverse effects; also recorded: Clean

Question: What about the half-life ([15]; Day 1, mean ± SD) of the same compound?
Answer: 7.9 ± 1.7 h

Question: What about the AUC(0-t) ([15]; Day 1, mean) of the same compound?
Answer: 147000 ng·h/mL

Question: What about the Cmax ([15]; Day 1, n = 3, mean) of the same compound?
Answer: 13000 ng/mL

Question: What about the Cmax ([15]; Day 14, mean) of the same compound?
Answer: 6530 ng/mL

Question: What about the half-life ([15]; Day 14, mean ± SD) of the same compound?
Answer: 6.2 ± 0.4 h

Question: What about the AUC(0-t) ([15]; Day 14, mean) of the same compound?
Answer: 69700 ng·h/mL

Question: And the IC50 ([16]; CYP3A4/5, midazolam as substrate)?
Answer: 58.6 µM

Question: And the IC50 ([16]; CYP3A4/5, testosterone as substrate)?
Answer: 53.6 µM

Question: What about the “Genotoxicity: Ames” value [17] of the same compound?
Answer: not genotoxic; also recorded: no genotoxic potential; also recorded: Clean

Question: What about the “Effect on sperm counts” value [18] of the same compound?
Answer: not sufficient to decrease sperm counts; also recorded: firm evidence of sperm reduction has not been observed; also recorded: have not been replicated

Question: What about the “Main outcomes: rat FOB (adverse effects on CNS)” value [19] of the same compound?
Answer: no adverse effects; also recorded: Clean
